US8921576B2, “Spiroindoline compound, and medicinal agent comprising same” (Kowa Company, Ltd., priority 2011, dated 2014)

Experiments:
[1] = tested on: normal mice (C57BL/6j mice); test: Oral glucose tolerance test after single administration of test compound in normal mice; type: in vivo; conditions: 30 mg/kg oral in 10% Gelucire44/14; 2 g/kg glucose oral 30 minutes later; versus solvent alone; FIG. 1
Description: FIG. 1 is a view showing the results of an oral sugar tolerance test that was carried out after completion of a single administration of the compound of Example 68, in which the 30 mg/kg compound was orally administered to normal mice, and 30 minutes later, 2 g/kg glucose was orally administered thereto, followed by confirmation of a hypoglycemic action of the compound.
The test compound (Example 68) (30 mg/kg) suspended in 10% (v/v) Gelucire44/14 (GATTEFOSSE) was orally administered to normal mice (C57BL/6j mice, CLEA Japan, Inc.). Thirty minutes later, 2 g/kg glucose was orally administered to the mice. The blood glucose level was measured using an automatic blood glucose level measurement apparatus (Medisafe, TERUMO), before administration of the test compound, 25 minutes after administration of the test compound, and 15, 30, 60, and 120 minutes after administration of glucose. Thus, the action of the test compound to lower blood glucose level was evaluated.

[2] = molecular target: T1, GST-GK derived from human liver GK (Homo sapiens, UniProt P35557); test: In vitro GK activity measurement test (G6PDH-coupled, OD340); type: biochemical; conditions: test compound 1 μmol/L; glucose 2.5 mmol/L; 25° C.; OD340 slope with compound / without compound; read-out: GK activation rate (%)
T1 construct: made in house; host or cells: Escherichia coli DH5α
T1 sequence (P35557 1-466 isoform P35557-2): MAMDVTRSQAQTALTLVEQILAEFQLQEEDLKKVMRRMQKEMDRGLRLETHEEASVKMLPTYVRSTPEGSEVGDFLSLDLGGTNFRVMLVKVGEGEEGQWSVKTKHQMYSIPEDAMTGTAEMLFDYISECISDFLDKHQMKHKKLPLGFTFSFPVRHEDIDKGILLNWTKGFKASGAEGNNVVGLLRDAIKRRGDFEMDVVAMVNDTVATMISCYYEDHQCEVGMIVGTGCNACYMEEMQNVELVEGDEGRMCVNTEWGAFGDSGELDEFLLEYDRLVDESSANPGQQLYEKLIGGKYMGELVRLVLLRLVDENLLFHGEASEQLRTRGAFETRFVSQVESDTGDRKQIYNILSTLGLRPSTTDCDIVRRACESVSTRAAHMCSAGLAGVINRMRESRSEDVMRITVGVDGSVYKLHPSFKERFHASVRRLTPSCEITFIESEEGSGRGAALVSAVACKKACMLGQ
How it was run: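 GST-fused human liver glucokinase (variant 2, E. coli-expressed) at 0.1 μg/mL final, in pH 7.1 Hepes with 2.5 mmol/L glucose, 5 mmol/L ATP, NADP and G6PDH coupling, at 25° C. OD340 slope monitored over 10 min. Activation rate is slope with test compound (1 μmol/L) divided by slope without.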

activity at 1 µM [2] [%] | SMILES | blood glucose level (action to lower blood glucose level) [1]
 | CC(=O)N1CCC2(C1)CN(C(=O)Nc1ncc(F)s1)c1ccc(Cl)cc12 (stereo not shown) [Example 68, 1′-acetyl-5-chloro-N-(5-fluorothiazol-2-yl)spiro[indoline-3,3′-pyrrolidine]-1-carboxamide] | lower than that of the mice orally administered with the solvent alone
454 | CCOC(=O)CCNC(=O)N1CCC2(C1)CN(C(=O)Nc1ncc(Cl)s1)c1ccc(Cl)cc12 (stereo not shown) [Example 462, Ethyl 3-(5-chloro-1-((5-chlorothiazol-2-yl)carbamoyl)spiro[indoline-3,3′-pyrrolidin]-1′-ylcarboxamido)propionate] | 
575 | COC(=O)N1CCC2(C1)CN(C(=O)Nc1ncc(SCCCNC(=O)C3CC3)s1)c1ccc(Cl)cc12 (stereo not shown) [Example 454, methyl 5-chloro-1-((5-((3-(cyclopropanecarboxamido)propyl)thio)thiazol-2-yl)carbamoyl)spiro[indoline-3,3′-pyrrolidine]-1′-carboxylate] | 
636 | COC(=O)N1CC[C@@]2(C1)CN(C(=O)Nc1ncc(F)s1)c1ccc(Cl)cc12 [Example 355, (S)-methyl 5-chloro-1-((5-fluorothiazol-2-yl)carbamoyl)spiro[indoline-3,3′-pyrrolidine]-1′-carboxylate] | 
